Experimental findings from patent US8076487B2, “Pyridone derivative and herbicide” (Kumiai Chemical Industry Co., Ltd., priority 2006, dated 2011) are described below.

What all share (format): in vivo
For test [1], the system named is Japanese bulrush (Scirpus juncoides Roxb.). Put plainly: Test Example 1: herbicidal effect by soil application to paddy field. Particulars: paddy field soil application; active ingredient 1,000 g per 1 hectare; wettable powder added dropwise to water surface the day after sowing; examined on the 21st day after application. The method in brief:
(§1)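 Plants were sown in flooded (3 cm) paddy soil and evaluated for herbicidal effect 21 days after soil application in a greenhouse.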

Test [2] concerns heartshape false pickerelweed (Monochoria vaginalis (Burm.f.) C.Presl). Described as above. Particulars: paddy field soil application; active ingredient 1,000 g per 1 hectare; wettable powder added dropwise to water surface the day after sowing; examined on the 21st day after application. Summed up:
as §1

For test [3], the system named is early watergrass (Echinochloa oryzicola Vasing). The test is described as above. Conditions: paddy field soil application; active ingredient 1,000 g per 1 hectare; wettable powder added dropwise to water surface the day after sowing; examined on the 21st day after application. Summed up:
as §1

Test [4] relates to green foxtail (Setaria viridis (L.) P. Beauv.). Put plainly: Test Example 3: herbicidal effect by application to upland field (foliage treatment). Particulars: foliage treatment, 1,000 g active ingredient per 1 hectare, 14th day after application, greenhouse. Summed up: (§2)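 Plants were sown in field soil and raised in a greenhouse for two weeks before foliar spraying. A water-diluted wettable powder was applied at 1,000 g active ingredient per hectare in 1,000 liters per hectare. Herbicidal effect was scored on a standard scale 14 days later.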

The test system of test [5] is velvetleaf (Abutilon theophrasti medicus). Described as above. Conditions: foliage treatment, 1,000 g active ingredient per 1 hectare, 14th day after application, greenhouse. Summed up: as §2
The subject of test [6] is barnyardgrass (Echinochloa crus-galli (L.) P. Beauv. var. crus-galli). Described as above. Conditions: foliage treatment, 1,000 g active ingredient per 1 hectare, 14th day after application, greenhouse. The method in brief:
as §2

The subject of test [7] is slender amaranth (Amaranthus viridis L.). The test is described as above. Conditions: foliage treatment, 1,000 g active ingredient per 1 hectare, 14th day after application, greenhouse. The method in brief: as §2
Test [8] has as its system green foxtail (Setaria viridis (L.) P. Beauv.). The test is described as follows: Test Example 2: herbicidal effect by soil application to upland field. Conditions: soil surface spray, upland field soil, 1,000 g active ingredient per hectare, 21st day after application. The method in brief: (§3)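 Greenhouse pot assay with field soil. Freshly sown seeds were covered with soil, then the surface was sprayed with diluted wettable powder: 1,000 g a.i./ha, 1,000 L/ha. Herbicidal effect scored at day 21 by standard criteria.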

For test [9], the system named is velvetleaf (Abutilon theophrasti medicus). The description is as above. Conditions: soil surface spray, upland field soil, 1,000 g active ingredient per hectare, 21st day after application. The method in brief:
as §3

Test [10] deals with barnyardgrass (Echinochloa crus-galli (L.) P. Beauv. var. crus-galli). Described as above. Particulars: soil surface spray, upland field soil, 1,000 g active ingredient per hectare, 21st day after application. Summed up:
as §3

Test [11] concerns slender amaranth (Amaranthus viridis L.). The description is as above. Conditions: soil surface spray, upland field soil, 1,000 g active ingredient per hectare, 21st day after application. The method in brief: as §3

On to `CCC(C)n1c(C(F)(F)F)ccc(C(=O)c2cnn(C)c2O)c1=O` (centres unmarked) [IV-8], for which, in [1], the “herbicidal effect, Scirpus juncoides Roxb.” value is 5 (90% or more of herbicidal effect and crop phytotoxicity). In addition, the “herbicidal effect, Monochoria vaginalis (Burm. f.) C. Presl” value (“herbicidal effect, Monochoria vaginalis” for short) in [2] was 5 (90% or more of herbicidal effect and crop phytotoxicity). The “herbicidal effect, Echinochloa oryzicola Vasing” value in test [3] was 5 (90% or more of herbicidal effect and crop phytotoxicity). For the same compound, the “herbicidal effect, Green Foxtail” value in test [4] was 4 (70 to less than 90% of herbicidal effect and crop phytotoxicity). For the same compound, the “herbicidal effect, Velvetleaf” value in test [5] is 5 (90% or more of herbicidal effect and crop phytotoxicity). Further, the “herbicidal effect, Barnyardgrass” value in test [6] was 5 (90% or more of herbicidal effect and crop phytotoxicity). The “herbicidal effect, Slender Amaranth” value in test [7] was 5 (90% or more of herbicidal effect and crop phytotoxicity). For the same compound, the “herbicidal effect (index), Green Foxtail” value in test [8] was 5 (90% or more of herbicidal effect and crop phytotoxicity). Further, the “herbicidal effect (index), Velvetleaf” value in test [9] is 5 (90% or more of herbicidal effect and crop phytotoxicity). In addition, in test [10], the “herbicidal effect (index), Barnyardgrass” value is 5 (90% or more of herbicidal effect and crop phytotoxicity). Besides, the “herbicidal effect (index), Slender Amaranth” value in test [11] is 5 (90% or more of herbicidal effect and crop phytotoxicity).
In the case of `CCCS(=O)(=O)Oc1c(C(=O)c2ccc(C(F)(F)F)n(CC(F)(F)F)c2=O)cnn1C` [IV-10], the “herbicidal effect, Scirpus juncoides Roxb.” value in [1] is 5 (90% or more of herbicidal effect and crop phytotoxicity). For the same compound, the “herbicidal effect, Monochoria vaginalis” value in test [2] was 5 (90% or more of herbicidal effect and crop phytotoxicity). For the same compound, in test [3], the “herbicidal effect, Echinochloa oryzicola Vasing” value was 5 (90% or more of herbicidal effect and crop phytotoxicity). In addition, the “herbicidal effect, Green Foxtail” value in [4] was 4 (70 to less than 90% of herbicidal effect and crop phytotoxicity). Moreover, in [5], the “herbicidal effect, Velvetleaf” value was 4 (70 to less than 90% of herbicidal effect and crop phytotoxicity). Further, the “herbicidal effect, Barnyardgrass” value in [6] was 5 (90% or more of herbicidal effect and crop phytotoxicity). In addition, the “herbicidal effect, Slender Amaranth” value in test [7] was 5 (90% or more of herbicidal effect and crop phytotoxicity). Also, in test [8], the “herbicidal effect (index), Green Foxtail” value was 5 (90% or more of herbicidal effect and crop phytotoxicity). The “herbicidal effect (index), Velvetleaf” value in [9] is 5 (90% or more of herbicidal effect and crop phytotoxicity). In test [10], the “herbicidal effect (index), Barnyardgrass” value is 5 (90% or more of herbicidal effect and crop phytotoxicity). In test [11], the “herbicidal effect (index), Slender Amaranth” value is 5 (90% or more of herbicidal effect and crop phytotoxicity).
`C=CCn1c(C(F)(F)F)ccc(C(=O)c2cnn(C)c2O)c1=O` [IV-11]: in test [1], the “herbicidal effect, Scirpus juncoides Roxb.” value is 5 (90% or more of herbicidal effect and crop phytotoxicity). Further, the “herbicidal effect, Monochoria vaginalis” value in [2] was 5 (90% or more of herbicidal effect and crop phytotoxicity). Besides, the “herbicidal effect, Echinochloa oryzicola Vasing” value in test [3] is 5 (90% or more of herbicidal effect and crop phytotoxicity). The “herbicidal effect, Green Foxtail” value in [4] is 5 (90% or more of herbicidal effect and crop phytotoxicity). Moreover, the “herbicidal effect, Velvetleaf” value in test [5] is 5 (90% or more of herbicidal effect and crop phytotoxicity). The “herbicidal effect, Barnyardgrass” value in test [6] was 5 (90% or more of herbicidal effect and crop phytotoxicity). In addition, the “herbicidal effect, Slender Amaranth” value in test [7] was 5 (90% or more of herbicidal effect and crop phytotoxicity). The “herbicidal effect (index), Green Foxtail” value in test [8] is 4 (70 to less than 90% of herbicidal effect and crop phytotoxicity). The “herbicidal effect (index), Velvetleaf” value in test [9] is 5 (90% or more of herbicidal effect and crop phytotoxicity). Besides, in test [10], the “herbicidal effect (index), Barnyardgrass” value was 5 (90% or more of herbicidal effect and crop phytotoxicity). In addition, the “herbicidal effect (index), Slender Amaranth” value in [11] was 5 (90% or more of herbicidal effect and crop phytotoxicity).
In the case of `Cn1ncc(C(=O)c2ccc(C(F)(F)F)n(C3CC3)c2=O)c1O` [IV-18], the “herbicidal effect, Scirpus juncoides Roxb.” value in test [1] was 5 (90% or more of herbicidal effect and crop phytotoxicity). The “herbicidal effect, Monochoria vaginalis” value in test [2] was 5 (90% or more of herbicidal effect and crop phytotoxicity). Moreover, the “herbicidal effect, Echinochloa oryzicola Vasing” value in [3] is 5 (90% or more of herbicidal effect and crop phytotoxicity). Further, the “herbicidal effect, Green Foxtail” value in [4] is 5 (90% or more of herbicidal effect and crop phytotoxicity). The “herbicidal effect, Velvetleaf” value in test [5] was 5 (90% or more of herbicidal effect and crop phytotoxicity). The “herbicidal effect, Barnyardgrass” value in test [6] is 5 (90% or more of herbicidal effect and crop phytotoxicity). For the same compound, in [7], the “herbicidal effect, Slender Amaranth” value is 5 (90% or more of herbicidal effect and crop phytotoxicity). Further, the “herbicidal effect (index), Green Foxtail” value in [8] was 5 (90% or more of herbicidal effect and crop phytotoxicity). Further, in test [9], the “herbicidal effect (index), Velvetleaf” value was 5 (90% or more of herbicidal effect and crop phytotoxicity). For the same compound, the “herbicidal effect (index), Barnyardgrass” value in [10] was 5 (90% or more of herbicidal effect and crop phytotoxicity). Further, the “herbicidal effect (index), Slender Amaranth” value in test [11] was 5 (90% or more of herbicidal effect and crop phytotoxicity).
Regarding `CCCS(=O)(=O)Oc1c(C(=O)c2ccc(C(F)(F)F)n(C3CC3)c2=O)cnn1C` [IV-19], the “herbicidal effect, Scirpus juncoides Roxb.” value in test [1] is 5 (90% or more of herbicidal effect and crop phytotoxicity). The “herbicidal effect, Monochoria vaginalis” value in test [2] was 5 (90% or more of herbicidal effect and crop phytotoxicity). In addition, the “herbicidal effect, Echinochloa oryzicola Vasing” value in [3] is 5 (90% or more of herbicidal effect and crop phytotoxicity). For the same compound, the “herbicidal effect, Green Foxtail” value in [4] was 5 (90% or more of herbicidal effect and crop phytotoxicity). The “herbicidal effect, Velvetleaf” value in test [5] was 5 (90% or more of herbicidal effect and crop phytotoxicity). In addition, the “herbicidal effect, Barnyardgrass” value in test [6] is 5 (90% or more of herbicidal effect and crop phytotoxicity). For the same compound, the “herbicidal effect, Slender Amaranth” value in test [7] was 5 (90% or more of herbicidal effect and crop phytotoxicity). Moreover, in [8], the “herbicidal effect (index), Green Foxtail” value was 5 (90% or more of herbicidal effect and crop phytotoxicity). Further, in [9], the “herbicidal effect (index), Velvetleaf” value is 5 (90% or more of herbicidal effect and crop phytotoxicity). In test [10], the “herbicidal effect (index), Barnyardgrass” value was 5 (90% or more of herbicidal effect and crop phytotoxicity). Moreover, in test [11], the “herbicidal effect (index), Slender Amaranth” value was 5 (90% or more of herbicidal effect and crop phytotoxicity).
With `Cn1ncc(C(=O)c2ccc(C(F)(F)F)n(C3CCCC3)c2=O)c1O` [IV-21], the “herbicidal effect, Scirpus juncoides Roxb.” value in [1] is 5 (90% or more of herbicidal effect and crop phytotoxicity). Also, the “herbicidal effect, Monochoria vaginalis” value in [2] was 5 (90% or more of herbicidal effect and crop phytotoxicity). Also, the “herbicidal effect, Echinochloa oryzicola Vasing” value in test [3] was 5 (90% or more of herbicidal effect and crop phytotoxicity). Moreover, the “herbicidal effect, Green Foxtail” value in test [4] was 4 (70 to less than 90% of herbicidal effect and crop phytotoxicity). For the same compound, in test [5], the “herbicidal effect, Velvetleaf” value is 5 (90% or more of herbicidal effect and crop phytotoxicity). Moreover, the “herbicidal effect, Barnyardgrass” value in [6] is 5 (90% or more of herbicidal effect and crop phytotoxicity). For the same compound, the “herbicidal effect, Slender Amaranth” value in [7] is 5 (90% or more of herbicidal effect and crop phytotoxicity). Besides, the “herbicidal effect (index), Green Foxtail” value in [8] is 5 (90% or more of herbicidal effect and crop phytotoxicity). In test [9], the “herbicidal effect (index), Velvetleaf” value is 5 (90% or more of herbicidal effect and crop phytotoxicity). Besides, the “herbicidal effect (index), Barnyardgrass” value in [10] was 3 (50 to less than 70% of herbicidal effect and crop phytotoxicity). The “herbicidal effect (index), Slender Amaranth” value in [11] was 5 (90% or more of herbicidal effect and crop phytotoxicity).
As to `Cn1ncc(C(=O)c2ccc(C(F)(F)F)n(CCC=C(Cl)Cl)c2=O)c1O` [IV-30], the “herbicidal effect, Scirpus juncoides Roxb.” value in [1] is 5 (90% or more of herbicidal effect and crop phytotoxicity). Further, the “herbicidal effect, Monochoria vaginalis” value in [2] was 5 (90% or more of herbicidal effect and crop phytotoxicity). Also, the “herbicidal effect, Echinochloa oryzicola Vasing” value in [3] is 5 (90% or more of herbicidal effect and crop phytotoxicity). In addition, the “herbicidal effect, Green Foxtail” value in test [4] was 5 (90% or more of herbicidal effect and crop phytotoxicity). Moreover, the “herbicidal effect, Velvetleaf” value in test [5] was 5 (90% or more of herbicidal effect and crop phytotoxicity). The “herbicidal effect, Barnyardgrass” value in test [6] is 5 (90% or more of herbicidal effect and crop phytotoxicity). For the same compound, the “herbicidal effect, Slender Amaranth” value in [7] was 5 (90% or more of herbicidal effect and crop phytotoxicity). Further, the “herbicidal effect (index), Green Foxtail” value in test [8] is 3 (50 to less than 70% of herbicidal effect and crop phytotoxicity). The “herbicidal effect (index), Velvetleaf” value in [9] is 5 (90% or more of herbicidal effect and crop phytotoxicity). Moreover, the “herbicidal effect (index), Barnyardgrass” value in [10] was 5 (90% or more of herbicidal effect and crop phytotoxicity). The “herbicidal effect (index), Slender Amaranth” value in [11] is 5 (90% or more of herbicidal effect and crop phytotoxicity).
